Measured values published in US5228957A, “Separation of methyl T-butyl ether from close boiling C5 hydrocarbons by extractive distillation” (priority 1993, dated 1993).
Structures can show the parent of a compound that is named as a salt. Where two headings read alike, the source gives them in different places.

What was measured:
Type in all cases: physicochemical
[1] = Extractive distillation agent separating methyl t-butyl ether from n-pentane-cyclopentane mixtures (vapor-liquid equilibrium still)
[2] = Extractive distillation agent separating methyl t-butyl ether from 1-pentene (vapor-liquid equilibrium still)
[3] = Extractive distillation agent separating methyl t-butyl ether from cyclopentane (vapor-liquid equilibrium still); conditions: cyclopentane to methyl t-butyl ether, with agent
Description: The data in Tables 2-6 was obtained in a vapor-liquid equilibrium still.

[4] = Relative volatility of methyl t-butyl ether from close boiling hydrocarbons, no agent (vapor-liquid equilibrium still); conditions: hydrocarbon to methyl t-butyl ether
Description: I have discovered that certain organic compounds will effectively increase the relative volatility between methyl t-butyl ether and close boiling hydrocarbons when employed as the agent in extractive distillation. The data in Tables 2-6 was obtained in a vapor-liquid equilibrium still.

[5] = cyclopentane to methyl t-butyl ether, n-pentane-cyclopentane mixture, with agent
[6] = n-pentane to methyl t-butyl ether, n-pentane-cyclopentane mixture, with agent
[7] = 1-pentene to methyl t-butyl ether, with agent

Structure (SMILES)	Relative Volatility CyP/MTBE [1, 5]	Relative Volatility Pnt/MTBE [1, 6]	other results
COCC(C)OC(C)=O (stereo not shown) [1-Methoxy-2-propanol acetate]	1.9	3.3	Relative Volatility [2, 7]: 3.5
CN1CCCC1=O [1-Methyl-2-pyrrolidinone]	1.8	3.9	Relative Volatility [3]: 1.8
CCC[N+](=O)[O-] [1-Nitropropane]	2.8	5.2	–
C=CCCC [1-Pentene]	–	–	Relative Volatility [4]: 1.7; Relative Volatility ([4]; listed as 1-pentene): less than 1.7
CC(=O)CC(C)=O [2,4-Pentanedione]	1.9	3.4	–
CC(C)[N+](=O)[O-] [2-Nitropropane]	2.2	3.8	–
CC(=O)c1ccccc1 [Acetophenone]	1.7	1.7	Relative Volatility [3]: 1.6
C1CCCC1 [Cyclopentane]	–	–	Relative Volatility [4]: 1.55; Relative Volatility ([4]; listed as cyclopentane): less than 1.7
CCOC(=O)OCC [Diethyl carbonate]	1.8	3.1	–
CCOC(=O)/C=C\C(=O)OCC [Diethyl maleate]	1.8	3.4	–
CCOC(=O)CC(=O)OCC [Diethyl malonate]	2.0	3.7	Relative Volatility [2, 7]: 3.1
CC(C)CC(=O)CC(C)C [Diisobutyl ketone]	1.5	2.5	–
CN(C)C=O [Dimethylformamide]	–	–	Relative Volatility CyP/MTBE [1]: 2.3; Relative Volatility Pnt/MTBE [1]: 4.7; Relative Volatility [2]: 3.0; Relative Volatility [3]: 2.0
C[S+](C)[O-] [Dimethylsulfoxide]	2.7	2.8	Relative Volatility [2, 7]: 3.9; Relative Volatility [3]: 1.8
CCOC(C)=O [Ethyl acetate]	1.8	2.9	–
CCOC(=O)CC(C)=O [Ethyl acetoacetate]	1.9	4.2	–

Structure (SMILES)	Relative Volatility CyP/MTBE [1, 5]	Relative Volatility Pnt/MTBE [1, 6]	other results
CCOC(=O)CC(C)C [Ethyl isovalerate]	1.5	2.5	–
CC(=O)OCCOC(C)=O [Ethylene glycol diacetate]	1.8	3.3	Relative Volatility [2, 7]: 5.5
COCCO [Ethylene glycol methyl ether]	–	–	Relative Volatility [2]: 3.6
CC1=CC(=O)CC(C)(C)C1 [Isophorone]	1.5	2.8	–
CC(=O)OC(C)C [Isopropyl acetate]	1.8	3.1	–
CC(=O)CCC(C)C [Methyl isoamyl ketone]	1.7	2.8	Relative Volatility [2, 7]: 2.6
COC(=O)c1ccccc1O [Methyl salicylate]	1.6	1.9	–
CC[N+](=O)[O-] [Nitroethane]	–	–	Relative Volatility CyP/MTBE [1]: 2.9; Relative Volatility Pnt/MTBE [1]: 5.2; Relative Volatility [2]: 3.0
C[N+](=O)[O-] [Nitromethane]	–	–	Relative Volatility CyP/MTBE [1]: 1.6; Relative Volatility Pnt/MTBE [1]: 1.5
CC(O)COc1ccccc1 (stereo not shown) [Propylene glycol phenyl ether]	2.0	4.2	Relative Volatility [2, 7]: 3.2
O=S1(=O)CCCC1 [Sulfolane]	3.6	2.4	Relative Volatility [2]: 4.4; Relative Volatility [3]: 3.6
CC(=O)OCC(COC(C)=O)OC(C)=O [Triacetin]	1.9	3.6	–
CCCCCCOC=O [n-Hexyl formate]	1.6	1.6	–
CCCCC [n-Pentane]	–	–	Relative Volatility [4]: 1.6; Relative Volatility ([4]; listed as n-pentane): less than 1.7
CCCOC(C)=O [n-Propyl acetate]	1.8	2.6	–
CC(C)(C)O [t-Butanol]	–	–	Relative Volatility [3]: 2.2
